From patent US12612386B2, “Heteroaryl-triazole compounds as pesticides” (Bayer Aktiengesellschaft, priority 2020, dated 2026)

Experiments:
Format in all cases: in vivo
[1] = test system: cattle tick larvae (Rhipicephalus microplus), strain Parkhurst, resistant against synthetic pyrethroids; experiment: Rhipicephalus (Boophilus) microplus in-vitro contact test, larval cattle tick; conditions: 5 μg/cm^2 (=500 g/ha), after 48 hours
Method: Rhipicephalus (Boophilus) Microplus—In-Vitro Contact Tests Larval Cattle Tick (Strain Parkhurst, Resistant Against Synthetic Pyrethroids)
(§1) 9 mg compound is solved in 1 mL acetone and diluted with acetone to the desired concentration. 250 μL of the test solution is filled in 25 mL glass test tubes and homogeneously distributed on the inner walls by rotation and tilting on a shaking device (2 h at 30 rpm). With a compound concentration of 900 ppm, an inner surface of 44.7 cm^2 and a homogeneous distribution, a dose of 5 μg/cm^2 is achieved.
After the solvent has evaporated, each test tube is filled with 20-50 cattle tick larvae (Rhipicephalus microplus), closed with a perforated lid and incubated in a horizontal position at 85% relative humidity and 27° C. in an incubator. After 48 hours efficacy is determined. The larvae are patted on the ground of the tubes and negative geotactic behavior is recorded.
An efficacy of 100% means all larvae are dead or moribund; 0% means no larvae are dead or moribund.

[2] = test system: adult cat fleas (Ctenocephalides felis); experiment: Ctenocephalides felis in-vitro contact test, adult cat flea; conditions: 5 μg/cm^2 (=500 g/ha), after 48 hours
Method: Ctenocephalides felis—In-Vitro Contact Tests Adult Cat Flea
as §1
(§2) After the solvent has evaporated, each test tube is filled with 5-10 adult cat fleas (Ctenocephalides felis), closed with a perforated lid and incubated in a lying position at room temperature and relative humidity. After 48 hours efficacy is determined. The fleas are patted on the ground of the tubes and are incubated on a heating plate at 45-50° C. for at most 5 minutes. Immotile or uncoordinated moving fleas, which are not able to escape the heat by climbing upwards, are marked as dead or moribund.
An efficacy of 100% means all fleas are dead or moribund; 0% means no fleas are dead or moribund.

[3] = test system: adult brown dog ticks (Rhipicephalus sanguineus); experiment: Rhipicephalus sanguineus in-vitro contact test, adult brown dog ticks; conditions: 48 h, read-out: efficacy (ticks dead or moribund)
Method: Rhipicephalus sanguineus—In-Vitro Contact Tests with Adult Brown Dog Ticks
as §1
as §2, with “brown dog ticks (Rhipicephalus sanguineus),” for “cat fleas (Ctenocephalides felis),”, “ticks” for “fleas”, “ticks,” for “fleas,”
An efficacy of 100% means all ticks are dead or moribund; 0% means no ticks are dead or moribund.

[4] = test system: larvae of the banded cucumber beetle (Diabrotica balteata); experiment: Diabrotica balteata spray test; conditions: 168 h, 100 g/ha (=32 μg/well), after 7 days, read-out: efficacy (seedling growth)
Outline: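 Germinated wheat seeds on agar (5 per well) were sprayed with compound formulated in acetone/DMF and diluted in water with 1000 ppm emulsifier. Each unit was then infested with 10–20 larvae. Efficacy % was scored after 7 days as seedling growth relative to an untreated, uninfested control (100% = normal growth).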

[5] = test system: green peach aphid (Myzus persicae); experiment: Myzus persicae spray test (MYZUPE); conditions: 120 h; for mortality at 100 g/ha: after 5 days
Outline: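 Chinese cabbage leaf disks infested with all instars of Myzus persicae were sprayed with compound formulated in acetone/dimethylformamide and diluted in water with 1000 ppm alkylarylpolyglycol ether emulsifier. Percent mortality was scored after 5 days, 100% meaning all aphids killed.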

[6] = test system: larvae of the southern green stink bug (Nezara viridula); experiment: whole plant or invertebrate; conditions: 96 h
Outline: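 Compound in acetone/DMF was diluted in water with 1000 ppm alkylarylpolyglycol ether emulsifier. Barley plants were sprayed with it, then infested with Nezara viridula larvae. Mortality % was scored after 4 days (100% = all killed).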

[7] = test system: brown planthopper (Nilaparvata lugens); experiment: Nilaparvata lugens spray test; conditions: 96 h
Outline: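 Rice plants (Oryza sativa) sprayed with compound formulated in acetone/DMF with alkylarylpolyglycol ether emulsifier (1000 ppm in diluting water), then infested with planthoppers. Mortality (%) scored after 4 days; 100% = all insects killed, 0% = none killed.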

[8] = test system: fall armyworm larvae (Spodoptera frugiperda); experiment: whole plant or invertebrate; conditions: 168 h
Outline: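 Maize leaf sections sprayed with compound in acetone/DMF with alkylarylpolyglycol ether emulsifier diluted in water, then infested with fall armyworm larvae once dry. Mortality (%) scored after 7 days; 100% = all caterpillars killed.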

[9] = test system: adult mosquitoes Aedes aegypti strain MONHEIM; experiment: Aedes aegypti test (AEDSAE surface treatment & contact assay); conditions: 24 hours after contact, read-out: efficacy (mortality); for mortality at 4 mg/m2: surface concentration 4 mg/m^2, 30 min exposure; for mortality at 20 mg/m2: surface concentration 20 mg/m^2, 30 min exposure
Method: Aedes aegypti Test (AEDSAE Surface Treatment & Contact Assay)
(§3) Solvent: Aceton+2000 ppm rapeseed oil methyl ester (RME)
(§4) This solution is pipetted onto a glazed tile and after evaporation of the acetone, adult mosquitoes of the species Aedes aegypti strain MONHEIM are placed onto the dried surface. The exposure time is 30 minutes. Mortality in percent (%) is determined 24 hours after contact of the insects to the treated surface. 100% mortality means that all tested insects are dead, whereas 0% means that no insect died.

[10] = test system: adult flies Musca domestica strain WHO-N; experiment: Musca domestica test (MUSCDO surface treatment & contact assay); conditions: 24 hours after contact, read-out: efficacy (mortality); for mortality at 20 mg/m2: surface concentration 20 mg/m^2, 30 min exposure
Method: Musca domestica Test (MUSCDO Surface Treatment & Contact Assay)
as §3
as §4, with “flies” for “mosquitoes”, “Musca domestica” for “Aedes aegypti”, “WHO-N” for “MONHEIM”

CNC(=O)c1cc(-n2ncnc2[C@H](C)NC(=O)c2cc(OC(F)F)cc(C3CC3)c2)ncn1 [I-67]
efficacy (larvae dead or moribund) [1]: 100%
efficacy (fleas dead or moribund) [2]: 100%
pest or weed control at 5 µg/cm2, 500 g/ha [3]: 100%
pest or weed control at 32 µg/disc, 100 g/ha [4]: 100%
mortality at 100 g/ha [5]: 90%
mortality at 500 g/ha [6]: 100%
mortality at 500 g/ha [7]: 100%
mortality at 100 g/ha [8]: 100%

C[C@H](NC(=O)c1cc(C(F)(F)F)cc(C(F)(F)F)c1)c1ncnn1-c1cc(C(=O)N(C)CC2CC2)ncn1 [I-76]
efficacy (larvae dead or moribund) [1]: 100%
efficacy (fleas dead or moribund) [2]: 100%
pest or weed control at 5 µg/cm2, 500 g/ha [3]: 100%
pest or weed control at 32 µg/disc, 100 g/ha [4]: 100%
mortality at 500 g/ha [6]: 100%
mortality at 500 g/ha [7]: 100%
mortality at 100 g/ha [8]: 100%

CNC(=O)c1cc(-n2ncnc2[C@H](C)NC(=O)c2cc(Cl)cc(S(=O)(=O)C(F)(F)F)c2)ncn1 [I-86]
pest or weed control at 32 µg/disc, 100 g/ha [4]: 100%
mortality at 100 g/ha [5]: 100%
Emax at 4 g/ha ([5]; MYZUPE, 4 g ai/ha, 5 dat (Table 4), read-out: % Efficacy): 100%
Emax at 20 g/ha ([5]; MYZUPE, 20 g ai/ha, 5 dat (Table 4), read-out: % Efficacy): 100%
Emax at 100 g/ha ([5]; MYZUPE, 100 g ai/ha, 5 dat (Table 4), read-out: % Efficacy): 100%
mortality at 500 g/ha [6]: 100%
mortality at 100 g/ha [8]: 100%
Emax at 20 g/ha ([8]; SPODFR, 20 g ai/ha, 7 dat (Table 4), read-out: % Efficacy): 100%
Emax at 100 g/ha ([8]; SPODFR, 100 g ai/ha, 7 dat (Table 4), read-out: % Efficacy): 100%
mortality at 4 mg/m2 [9]: 80 to 100%
mortality at 20 mg/m2 [9]: 80 to 100%
mortality at 20 mg/m2 [10]: 80 to 100%

C[C@H](NC(=O)c1cc(OC(F)F)cc(OC(F)(F)F)c1)c1ncnn1-c1cc(C(N)=O)ncn1 [I-141]
efficacy (larvae dead or moribund) [1]: 100%
efficacy (fleas dead or moribund) [2]: 100%
pest or weed control at 5 µg/cm2, 500 g/ha [3]: 100%
pest or weed control at 32 µg/disc, 100 g/ha [4]: 100%
mortality at 100 g/ha [5]: 90%
mortality at 500 g/ha [6]: 100%
mortality at 500 g/ha [7]: 100%
mortality at 100 g/ha [8]: 100%

Cc1nc([C@H](C)NC(=O)c2cc(Cl)cc(OC(F)(F)F)c2)n(-c2cc(C(N)=O)ncn2)n1 [I-85]
efficacy (larvae dead or moribund) [1]: 100%
efficacy (fleas dead or moribund) [2]: 100%
pest or weed control at 5 µg/cm2, 500 g/ha [3]: 100%
pest or weed control at 32 µg/disc, 100 g/ha [4]: 100%
mortality at 100 g/ha [5]: 100%
mortality at 500 g/ha [6]: 100%
mortality at 500 g/ha [7]: 90%
mortality at 100 g/ha [8]: 100%

C[C@H](NC(=O)c1cc(Br)cc(Br)c1)c1ncnn1-c1cc(C(N)=O)ncn1 [I-34, 6-[5-[(1S)-1-[(3,5-dibromobenzoyl)amino]ethyl]-1,2,4-triazol-1-yl]pyrimidine-4-carboxamide]
efficacy (larvae dead or moribund) [1]: 100%
efficacy (fleas dead or moribund) [2]: 100%
pest or weed control at 5 µg/cm2, 500 g/ha [3]: 100%
pest or weed control at 32 µg/disc, 100 g/ha [4]: 100%
mortality at 100 g/ha [5]: 90%
mortality at 100 g/ha [6]: 100%
mortality at 500 g/ha [6]: 100%
mortality at 100 g/ha [8]: 100%
mortality at 4 mg/m2 [9]: 80 to 100%
mortality at 20 mg/m2 [9]: 80 to 100%

Cc1nc([C@H](C)NC(=O)c2cc(C(F)(F)F)cc(C(F)(F)F)c2)n(-c2cc(C#N)ncn2)n1 [I-5]
efficacy (larvae dead or moribund) [1]: 100%
efficacy (fleas dead or moribund) [2]: 90%
pest or weed control at 5 µg/cm2, 500 g/ha [3]: 100%
pest or weed control at 32 µg/disc, 100 g/ha [4]: 100%
mortality at 100 g/ha [5]: 90%
mortality at 100 g/ha [8]: 100%
mortality at 20 mg/m2 [9]: 80 to 100%

C[C@H](NC(=O)c1cc(F)cc(OC(F)(F)F)c1)c1ncnn1-c1cc(C(N)=O)ncn1 [I-80]
efficacy (larvae dead or moribund) [1]: 100%
efficacy (fleas dead or moribund) [2]: 100%
pest or weed control at 5 µg/cm2, 500 g/ha [3]: 100%
pest or weed control at 32 µg/disc, 100 g/ha [4]: 100%
mortality at 100 g/ha [5]: 100%
mortality at 500 g/ha [6]: 100%
mortality at 500 g/ha [7]: 100%
mortality at 100 g/ha [8]: 100%

C[C@H](NC(=O)c1cc(Br)cc(OC(F)F)c1)c1ncnn1-c1cc(C#N)ncn1 [I-3]
efficacy (larvae dead or moribund) [1]: 100%
efficacy (fleas dead or moribund) [2]: 100%
pest or weed control at 5 µg/cm2, 500 g/ha [3]: 100%
pest or weed control at 32 µg/disc, 100 g/ha [4]: 100%
mortality at 100 g/ha [5]: 90%
mortality at 100 g/ha [6]: 90%
mortality at 500 g/ha [6]: 90%
mortality at 100 g/ha [8]: 100%
mortality at 20 mg/m2 [9]: 80 to 100%

Cc1nc([C@H](C)NC(=O)c2cc(C(F)(F)F)cc(C(F)(F)F)c2)n(-c2cc(C(=O)N(C)CC3CC3)ncn2)n1 [I-75]
efficacy (larvae dead or moribund) [1]: 100%
efficacy (fleas dead or moribund) [2]: 100%
pest or weed control at 5 µg/cm2, 500 g/ha [3]: 100%
pest or weed control at 32 µg/disc, 100 g/ha [4]: 100%
mortality at 500 g/ha [6]: 100%
mortality at 500 g/ha [7]: 100%
mortality at 100 g/ha [8]: 100%

C[C@H](NC(=O)c1cccc(OC(F)(F)F)c1)c1ncnn1-c1cc(C(N)=O)ncn1 [I-50]
efficacy (larvae dead or moribund) [1]: 100%
efficacy (fleas dead or moribund) [2]: 100%
pest or weed control at 5 µg/cm2, 500 g/ha [3]: 100%
pest or weed control at 32 µg/disc, 100 g/ha [4]: 100%
mortality at 100 g/ha [5]: 90%
mortality at 500 g/ha [7]: 100%
mortality at 100 g/ha [8]: 100%

CC(NC(=O)c1cc(OC(F)(F)F)cc(C2CC2)c1)c1ncnn1-c1cc(C#N)ncn1 (stereo not shown) [I-8, N-{1-[1-(6-cyanopyrimidin-4-yl)-1H-1,2,4-triazol-5-yl]ethyl}-3-cyclopropyl-5-(trifluoromethoxy)benzamide]
efficacy (larvae dead or moribund) [1]: 100%
pest or weed control at 32 µg/disc, 100 g/ha [4]: 100%
mortality at 100 g/ha [5]: 90%
mortality at 500 g/ha [7]: 100%
mortality at 100 g/ha [8]: 100%
mortality at 4 mg/m2 [9]: 80 to 100%
mortality at 20 mg/m2 [9]: 80 to 100%
mortality at 20 mg/m2 [10]: 80 to 100%

C[C@H](NC(=O)c1cc(OC(F)(F)F)cc(C2CC2)c1)c1ncnn1-c1cc(C#N)ncn1 [I-10]
efficacy (larvae dead or moribund) [1]: 100%
pest or weed control at 32 µg/disc, 100 g/ha [4]: 100%
mortality at 100 g/ha [8]: 100%
mortality at 4 mg/m2 [9]: 80 to 100%
mortality at 20 mg/m2 [9]: 80 to 100%
mortality at 20 mg/m2 [10]: 80 to 100%

C[C@H](NC(=O)c1cc(C#N)cc(OC(F)(F)F)c1)c1nc(C2CC2)nn1-c1cc(C(N)=O)ncn1 [I-39]
pest or weed control at 32 µg/disc, 100 g/ha [4]: 100%
mortality at 500 g/ha [7]: 100%
mortality at 100 g/ha [8]: 100%
mortality at 4 mg/m2 ([10]; surface concentration 4 mg/m^2, 30 min exposure): 80 to 100%
mortality at 20 mg/m2 [10]: 80 to 100%

CCN(C)C(=O)c1cc(-n2ncnc2[C@H](C)NC(=O)c2cc(C(F)(F)F)cc(C(F)(F)F)c2)ncn1 [I-64]
efficacy (larvae dead or moribund) [1]: 100%
efficacy (fleas dead or moribund) [2]: 100%
pest or weed control at 5 µg/cm2, 500 g/ha [3]: 100%
pest or weed control at 32 µg/disc, 100 g/ha [4]: 100%
mortality at 100 g/ha [5]: 90%
mortality at 500 g/ha [6]: 100%
mortality at 500 g/ha [7]: 100%
mortality at 100 g/ha [8]: 100%
